Measurements reported in patent US20090105124A1, “HETEROCYCLIC MODULATORS OF TGR5” (Kalypsys, Inc., priority 2007, published 2009).

Biological target: T1, human TGR5 (Homo sapiens, UniProt Q8TDU6)
T1 construct: expressed in transfected cells
T1 sequence (Q8TDU6 1-330): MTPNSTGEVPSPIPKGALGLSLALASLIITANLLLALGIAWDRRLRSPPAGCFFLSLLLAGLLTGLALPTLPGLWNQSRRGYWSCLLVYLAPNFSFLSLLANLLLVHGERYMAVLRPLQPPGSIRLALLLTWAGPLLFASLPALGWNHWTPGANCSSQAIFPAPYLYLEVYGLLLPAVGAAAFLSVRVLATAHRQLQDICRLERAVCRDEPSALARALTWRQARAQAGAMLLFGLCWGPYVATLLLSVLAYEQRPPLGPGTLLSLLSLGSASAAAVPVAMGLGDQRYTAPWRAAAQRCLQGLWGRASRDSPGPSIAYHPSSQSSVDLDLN
Test: cAMP production assay in HEK293 cells stably expressing TGR5 (LANCE cAMP, TR-FRET)
Assay type: cell-based
Conditions: stimulated with test compounds for 30 minutes, 1 mM IBMX, read-out: cAMP Production in 293-TGR5 Cells
Experimental: HEK293 cells stably expressing TGR5 (HEK293-TGR5) were established by stably transfecting HEK-293 cells with an expression vector (pcDNA 3.1, Invetrogen) inserted with human TGR5 cDNA using Fugene6 (Roche, Indianapolis, Ind.) according to conventional methods. Cells were grown in DMEM (invitrogen, Carlsbad, Calif.) supplemented with 10% FBS, 1% penicillin/streptomycin under geneticin selection. The presence of TGR5 transcripts in these cells was confirmed using branched DNA (bDNA, Genospectra, Inc., Fremont Calif.) following the manufacturer's protocol and using specific probes for human TGR5. cAMP production assay was performed in high throughput 1536 well format using LANCE cAMP detection kit (Perkin Elmer Inc., Boston, Mass.) according to the manufacturer's protocol. Briefly, HEK293-TGR5 cells were harvested using non-enzymatic cell dissociation buffer (Invitrogen, Carlsbad, Calif.) and suspended in DMEM supplemented with 0.1% FBS at a density of 800,000 cells/ml. Alexa antibody was added to the cell suspension, and 4 ul of the mixture was dispensed in white opaque tissue culture treated Greiner 1536 well plates (USA Scientific, Inc., Ocala, Fla.). After an overnight incubation at 37 C in an atmosphere of 10% CO2 and 95% humidity, 1 ul of 5 mM IBMX (Sigma, St. Louis, Mo.) solution in DMEM was dispensed for a final concentration of 1 mM. Cells were then stimulated with test compounds for 30 minutes, after which time 5 ul of detection reagent was added and incubated for 1-7 hrs at room temperature. TR-FRET signal was detected using the Viewlux (Perkin Elmer Inc., Boston Mass.). EC50 values were determined using Graph Pad Prizm analysis (GraphPad Software, Inc). The EC50 values for a wide range of bile acids generated from this assay were in agreement with the values published in the scientific literature. […] The symbol (+) denotes an EC50 value of ≦10 μM while the symbol (−) denotes an EC50 value of >10 μM (see Table 1).

EC50, ≤ 10 µM:
O=c1c2cccnc2nc(-c2cncc(Cl)c2)n1NCc1ccc(Cl)cc1F [Example 1, 3-{[(4-Chloro-2-fluorophenyl)methyl]amino}-2-(5-chloropyridin-3-yl)-3H,4H-pyrido[2,3-d]pyrimidin-4-one]
O=c1c2cccnc2nc(-c2ccccc2F)n1NCc1ccc(Cl)cc1 [Example 2, 3-{[(4-Chlorophenyl)methyl]amino}-2-(2-fluorophenyl)-3H,4H-pyrido[2,3-d]pyrimidin-4-one]
COc1cccc(-c2nc3ncccc3c(=O)n2NCc2ccc(Cl)cc2)c1 [Example 3, 3-{[(4-Chlorophenyl)methyl]amino}-2-(3-methoxyphenyl)-3H,4H-pyrido[2,3-d]pyrimidin-4-one]
O=c1c2cccnc2nc(-c2ccc(F)cc2)n1NCc1ccc(Br)cc1 [Example 4, 3-{[(4-Bromophenyl)methyl]amino}-2-(4-fluorophenyl)-3H,4H-pyrido[2,3-d]pyrimidin-4-one]
COc1ccc(-c2nc3ncccc3c(=O)n2NCc2ccc(Br)cc2)cc1 [Example 5, 3-{[(4-Bromophenyl)methyl]amino}-2-(4-methoxyphenyl)-3H,4H-pyrido[2,3-d]pyrimidin-4-one]
O=c1c2cccnc2nc(-c2ccc(O)cc2)n1NCc1ccc(Br)cc1 [Example 6, 3-{[(4-Bromophenyl)methyl]amino}-2-(4-hydroxyphenyl)-3H,4H-pyrido[2,3-d]pyrimidin-4-one]
O=c1c2cccnc2nc(-c2cccnc2)n1NCc1ccc(Cl)cc1 [Example 7, 3-{[(4-Chlorophenyl)methyl]amino}-2-(pyridin-3-yl)-3H,4H-pyrido[2,3-d]pyrimidin-4-one]
O=c1c2cccnc2nc(-c2cncc(Cl)c2)n1NCc1ccc(Cl)cc1 [Example 8, 3-{[(4-Chlorophenyl)methyl]amino}-2-(5-chloropyridin-3-yl)-3H,4H-pyrido[2,3-d]pyrimidin-4-one]
COc1cncc(-c2nc3ncccc3c(=O)n2NCc2ccc(Cl)cc2)c1 [Example 9, 3-{[(4-Chlorophenyl)methyl]amino}-2-(5-methoxypyridin-3-yl)-3H,4H-pyrido[2,3-d]pyrimidin-4-one]
O=c1c2cccnc2nc(-c2ccc(F)cc2)n1NCc1ccc(Cl)cc1 [Example 10, 3-{[(4-Chlorophenyl)methyl]amino}-2-(4-fluorophenyl)-3H,4H-pyrido[2,3-d]pyrimidin-4-one]
O=c1c2cccnc2nc(-c2ccc(F)cc2)n1NCc1ccc(C(F)(F)F)cc1 [Example 11, 2-(4-Fluorophenyl)-3-({[4-(trifluoromethyl)phenyl]methyl}amino)-3H,4H-pyrido[2,3-d]pyrimidin-4-one]
O=c1c2cccnc2nc(-c2ccc(F)cc2)n1NCc1ccc(F)c(F)c1 [Example 12, 3-{[(3,4-Difluorophenyl)methyl]amino}-2-(4-fluorophenyl)-3H,4H-pyrido[2,3-d]pyrimidin-4-one]
COc1cc(-c2nc3ncccc3c(=O)n2NCc2ccc(Br)cc2)ccc1C [Example 13, 3-{[(4-Bromophenyl)methyl]amino}-2-(3-methoxy-4-methylphenyl)-3H,4H-pyrido[2,3-d]pyrimidin-4-one]
COc1cc(-c2nc3ncccc3c(=O)n2NCc2ccc(Cl)cc2)ccc1C [Example 14, 3-{[(4-Chlorophenyl)methyl]amino}-2-(3-methoxy-4-methylphenyl)-3H,4H-pyrido[2,3-d]pyrimidin-4-one]
COc1cc(-c2nc3ncccc3c(=O)n2NCc2ccc(Cl)cc2)ccc1O [Example 15, 3-{[(4-Chlorophenyl)methyl]amino}-2-(4-hydroxy-3-methoxyphenyl)-3H,4H-pyrido[2,3-d]pyrimidin-4-one]
COc1cncc(-c2nc3cnccc3c(=O)n2NCc2ccc(Cl)cc2)c1 [Example 16, 3-{[(4-Chlorophenyl)methyl]amino}-2-(5-methoxypyridin-3-yl)-3H,4H-pyrido[3,4-d]pyrimidin-4-one]
O=c1c2ccncc2nc(-c2ccc(F)cc2)n1NCc1ccc(Br)cc1 [Example 17, 3-{[(4-Bromophenyl)methyl]amino}-2-(4-fluorophenyl)-3H,4H-pyrido[3,4-d]pyrimidin-4-one]
O=c1c2ccncc2nc(-c2cncc(Cl)c2)n1NCc1ccc(Cl)cc1 [Example 18, 3-{[(4-Chlorophenyl)methyl]amino}-2-(5-chloropyridin-3-yl)-3H,4H-pyrido[3,4-d]pyrimidin-4-one]
Cc1cc(-c2nc3cnccc3c(=O)n2NCc2ccc(Cl)cc2)ccc1[N+](=O)[O-] [Example 19, 3-{[(4-Chlorophenyl)methyl]amino}-2-(3-methyl-4-nitrophenyl)-3H,4H-pyrido[3,4-d]pyrimidin-4-one]
Cc1cc(-c2nc3cnccc3c(=O)n2NCc2ccc(Cl)cc2)ccc1N [Example 20, 2-(4-Amino-3-methylphenyl)-3-{[(4-chlorophenyl)methyl]amino}-3H,4H-pyrido[3,4-d]pyrimidin-4-one]
Cc1cc(-c2nc3cnccc3c(=O)n2NCc2ccc(Cl)cc2)ccc1O [Example 21, 3-{[(4-Chlorophenyl)methyl]amino}-2-(4-hydroxy-3-methylphenyl)-3H,4H-pyrido[3,4-d]pyrimidin-4-one]
COc1cc(-c2nc3cnccc3c(=O)n2NCc2ccc(Cl)cc2)ccc1O [Example 22, 3-{[(4-Chlorophenyl)methyl]amino}-2-(4-hydroxy-3-methoxyphenyl)-3H,4H-pyrido[3,4-d]pyrimidin-4-one]
O=c1c2cnccc2nc(-c2ccc(F)cc2)n1NCc1ccc(Cl)cc1 [Example 23, 3-{[(4-Chlorophenyl)methyl]amino}-2-(4-fluorophenyl)-3H,4H-pyrido[4,3-d]pyrimidin-4-one]
O=c1c2ncccc2nc(-c2ccc(F)cc2)n1NCc1ccc(Br)cc1 [Example 25, 3-{[(4-Bromophenyl)methyl]amino}-2-(4-fluorophenyl)-3H,4H-pyrido[3,2-d]pyrimidin-4-one]
O=c1c2ccsc2nc(-c2ccc(O)cc2)n1NCc1ccc(Br)cc1 [Example 26, 3-{[(4-Bromophenyl)methyl]amino}-2-(4-hydroxyphenyl)-3H,4H-thieno[2,3-d]pyrimidin-4-one]
COc1cncc(-c2nc3ccsc3c(=O)n2NCc2ccc(Cl)cc2)c1 [Example 27, 3-{[(4-Chlorophenyl)methyl]amino}-2-(5-methoxypyridin-3-yl)-3H,4H-thieno[3,2-d]pyrimidin-4-one]
COc1cncc(-c2nc3ccsc3c(=O)n2NCC2CCC2)c1 [Example 28, 3-[(Cyclobutylmethyl)amino]-2-(5-methoxypyridin-3-yl)-3H,4H-thieno[3,2-d]pyrimidin-4-one]
COc1cncc(-c2nc3nccnc3c(=O)n2NCc2ccc(Cl)cc2)c1 [Example 29, 3-{[(4-Chlorophenyl)methyl]amino}-2-(5-methoxypyridin-3-yl)-3,4-dihydropteridin-4-one]
O=c1c2cncnc2nc(-c2ccc(F)cc2)n1NCc1ccc(Cl)cc1 [Example 30, 3-{[(4-Chlorophenyl)methyl]amino}-2-(4-fluorophenyl)-3H,4H-pyrimido[4,5-d][1,3]diazin-4-one]
O=c1c2ccsc2nc(-c2ccc(F)cc2)n1NCc1ccc(Br)cc1 [Example 31, 3-{[(4-Bromophenyl)methyl]amino}-2-(4-fluorophenyl)-3H,4H-thieno[2,3-d]pyrimidin-4-one]
O=c1c2ccsc2nc(-c2ccc(F)cc2)n1NCc1ccc(Cl)cc1 [Example 32, 3-{[(4-Chlorophenyl)methyl]amino}-2-(4-fluorophenyl)-3H,4H-thieno[2,3-d]pyrimidin-4-one]
O=c1c2ccsc2nc(-c2ccc(F)cc2)n1NCc1ccc(Cl)c(Cl)c1 [Example 33, 3-{[(3,4-Dichlorophenyl)methyl]amino}-2-(4-fluorophenyl)-3H,4H-thieno[2,3-d]pyrimidin-4-one]
COc1cncc(-c2nc3sccc3c(=O)n2NCc2ccc(Cl)cc2)c1 [Example 34, 3-{[(4-Chlorophenyl)methyl]amino}-2-(5-methoxypyridin-3-yl)-3H,4H-thieno[2,3-d]pyrimidin-4-one]
